# Patent US20150181873A1, “HERBICIDE-RESISTANT SUNFLOWER PLANTS, POLYNUCLEOTIDES ENCODING HERBICIDE=RESISTANT ACETO HYDROXY ACID SYNTHASE LARGE SUBUNIT PROTEINS, AND METHODS OF USE” (NIDERA S.A., priority 2013, published 2015)
# Legend:
# Type in all cases: in vivo, Helianthus annuus
# Settings in all cases: 14 DAT
# [1] = system: sunflower line GM1606 (A122T); experiment: Greenhouse imazapir dose response, GM1606
# Protocol: (§1) A greenhouse study was conducted to quantify and contrast the imazapir sensivity of the mutants A122T and A205V in different genetic backgrounds at the whole plant level in sunflower. Seeds of the different sunflower lines that were used in this study were obtained under field conditions.
# (§2) Seeds were sown in Petri dishes and, after germination, plantlets were transplanted to pots of 10 cm of diameter in a potting media consisting of equal parts of vermiculite, soil and sand. Plants were grown in a greenhouse under natural light conditions supplemented with 400 W sodium halide lamps to provide a 16 hrs daylength. Day/night temperatures were 25 and 20° C., respectively. At the V2 stage 10 plants of each genotype were randomly assigned to each treatment consisting of […] imazapir doses (0, 40, 80, 160, 240, 320, 400 and 480 g ai/ha), and a zero-time biomass determination. Experiment was arranged as a randomized block design with a full factorial (sunflower line×treatment) arrangement of treatments and 10 replications.
# (§3) On the day of herbicide application ten plants of each genotype were cut at the cotyledonal node and dried at 60° C. for 48 hrs zero-time for dried weight determination. […] Height was determined as the distance between the cotyledonal node and the apex of each plant. For root biomass determination, each plant was taken from the pot and the potting media was washed out from the roots. Above ground biomass data from each line were converted to biomass accumulation after application by subtracting the appropriate average zero-time biomass from each sample. Dry biomass data were converted to percentages of the untreated control plants within each line to allow direct comparisons between groups.
# [2] = system: sunflower restorer line TH12 (A122T); experiment: Greenhouse imazapir dose response, TH12
# Protocol: as §1, §2, §3
# [3] = system: sunflower restorer line IR79 (A205V); experiment: Greenhouse imazapir dose response, IR79
# Protocol: as §1, §2, §3
compound,measurement,setting,value
"CC(C)C1(C)N=C(c2ncccc2C(=O)O)NC1=O (stereo not shown) [Imazapyr, imazapyr]","biomass accumulation, % of untreated",[1]; 0.5x (40 g ai/ha),100.0%
same,"plant height, % of untreated",[1]; 0.5x (40 g ai/ha),97.0%
same,"root dry weight, % of untreated",[1]; 0.5x (40 g ai/ha),100%
same,"biomass accumulation, % of untreated",[1]; 1x (80 g ai/ha),100.0%
same,"plant height, % of untreated",[1]; 1x (80 g ai/ha),95.7%
same,"root dry weight, % of untreated",[1]; 1x (80 g ai/ha),100.0%
same,"biomass accumulation, % of untreated",[1]; 2x (160 g ai/ha),97.6%
same,"plant height, % of untreated",[1]; 2x (160 g ai/ha),95.2%
same,"root dry weight, % of untreated",[1]; 2x (160 g ai/ha),92.5%
same,"biomass accumulation, % of untreated",[1]; 3x (240 g ai/ha),95.4%
same,"plant height, % of untreated",[1]; 3x (240 g ai/ha),95.7%
same,"root dry weight, % of untreated",[1]; 3x (240 g ai/ha),85.2%
same,"biomass accumulation, % of untreated",[1]; 4x (320 g ai/ha),90.5%
same,"plant height, % of untreated",[1]; 4x (320 g ai/ha),94.1%
same,"root dry weight, % of untreated",[1]; 4x (320 g ai/ha),87.0%
same,"biomass accumulation, % of untreated",[1]; 5x (400 g ai/ha),85.3%
same,"plant height, % of untreated",[1]; 5x (400 g ai/ha),94.3%
same,"root dry weight, % of untreated",[1]; 5x (400 g ai/ha),88.1%
same,"biomass accumulation, % of untreated",[1]; 6x (480 g ai/ha),83.0%
same,"plant height, % of untreated",[1]; 6x (480 g ai/ha),91.4%
same,"root dry weight, % of untreated",[1]; 6x (480 g ai/ha),69.5%
same,Phytotoxicity Index,[2]; 0.5x (40 g ai/ha),0.0
same,"biomass accumulation, % of untreated",[2]; 0.5x (40 g ai/ha),100.0%
same,"plant height, % of untreated",[2]; 0.5x (40 g ai/ha),100.0%
same,"root dry weight, % of untreated",[2]; 0.5x (40 g ai/ha),99.4%
same,Phytotoxicity Index,[2]; 1x (80 g ai/ha),0.0
same,"biomass accumulation, % of untreated",[2]; 1x (80 g ai/ha),99.1%
same,"plant height, % of untreated",[2]; 1x (80 g ai/ha),100.0%
same,"root dry weight, % of untreated",[2]; 1x (80 g ai/ha),100%
same,Phytotoxicity Index,[2]; 2x (160 g ai/ha),0.0
same,"biomass accumulation, % of untreated",[2]; 2x (160 g ai/ha),97.0%
same,"plant height, % of untreated",[2]; 2x (160 g ai/ha),101.8%
same,"root dry weight, % of untreated",[2]; 2x (160 g ai/ha),100%
same,Phytotoxicity Index,[2]; 3x (240 g ai/ha),0.0
same,"biomass accumulation, % of untreated",[2]; 3x (240 g ai/ha),96.1%
same,"plant height, % of untreated",[2]; 3x (240 g ai/ha),97.0%
same,"root dry weight, % of untreated",[2]; 3x (240 g ai/ha),100.0%
same,Phytotoxicity Index,[2]; 4x (320 g ai/ha),0.0
same,"biomass accumulation, % of untreated",[2]; 4x (320 g ai/ha),84.3%
same,"plant height, % of untreated",[2]; 4x (320 g ai/ha),92.1%
same,"root dry weight, % of untreated",[2]; 4x (320 g ai/ha),74.5%
same,Phytotoxicity Index,[2]; 5x (400 g ai/ha),0.0
same,"biomass accumulation, % of untreated",[2]; 5x (400 g ai/ha),77.5%
same,"plant height, % of untreated",[2]; 5x (400 g ai/ha),84.8%
same,"root dry weight, % of untreated",[2]; 5x (400 g ai/ha),65.0%
same,Phytotoxicity Index,[2]; 6x (480 g ai/ha),0.5
same,"biomass accumulation, % of untreated",[2]; 6x (480 g ai/ha),70.7%
same,"plant height, % of untreated",[2]; 6x (480 g ai/ha),79.8%
same,"root dry weight, % of untreated",[2]; 6x (480 g ai/ha),57.8%
same,"biomass accumulation, % of untreated",[3]; 0.5x (40 g ai/ha),94.4%
same,"plant height, % of untreated",[3]; 0.5x (40 g ai/ha),92.8%
same,"root dry weight, % of untreated",[3]; 0.5x (40 g ai/ha),98.6%
same,"biomass accumulation, % of untreated",[3]; 1x (80 g ai/ha),74.0%
same,"plant height, % of untreated",[3]; 1x (80 g ai/ha),80.9%
same,"root dry weight, % of untreated",[3]; 1x (80 g ai/ha),53.4%
same,"biomass accumulation, % of untreated",[3]; 2x (160 g ai/ha),67.7%
same,"plant height, % of untreated",[3]; 2x (160 g ai/ha),74.9%
same,"root dry weight, % of untreated",[3]; 2x (160 g ai/ha),42.5%
same,"biomass accumulation, % of untreated",[3]; 3x (240 g ai/ha),49.1%
same,"plant height, % of untreated",[3]; 3x (240 g ai/ha),55.7%
same,"root dry weight, % of untreated",[3]; 3x (240 g ai/ha),38.4%
same,"biomass accumulation, % of untreated",[3]; 4x (320 g ai/ha),44.5%
same,"plant height, % of untreated",[3]; 4x (320 g ai/ha),52.8%
same,"root dry weight, % of untreated",[3]; 4x (320 g ai/ha),31.5%
same,"biomass accumulation, % of untreated",[3]; 5x (400 g ai/ha),40.1%
same,"plant height, % of untreated",[3]; 5x (400 g ai/ha),41.7%
same,"root dry weight, % of untreated",[3]; 5x (400 g ai/ha),23.3%
same,"biomass accumulation, % of untreated",[3]; 6x (480 g ai/ha),35.3%
same,"plant height, % of untreated",[3]; 6x (480 g ai/ha),33.2%
same,"root dry weight, % of untreated",[3]; 6x (480 g ai/ha),21.9%
